Laboratory results from patent publication US8106055B2, “Substituted amide compounds” (Gruenenthal GmbH, priority 2007, dated 2012).

Target: T1, human μ opiate receptor (Homo sapiens, UniProt P35372)
T1 construct: purchased PerkinElmer Life Sciences, Zaventem, Belgium RB-HOM; host or cells: CHO-K1 cells (membrane preparation)
Assay: Affinity for the human μ opiate receptor ([3H]-naloxone displacement, CHO-K1 receptor membrane preparation, SPA)
Format: binding
Details: test concentration of 1 μM; read-out: μ (binding on the μ opioid receptor, % inhibition)
Method in brief: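 SPA, CHO-K1 hμ membranes; 1 nmol/l [3H]-naloxone; Tris-HCl 50 mmol/l + 0.06% BSA; 90 min RT; NSB with 100 μmol/l naloxone; β-counting. Readout: % inhibition of specific binding at 1 μM test compound.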

T1 sequence (P35372 whole entry): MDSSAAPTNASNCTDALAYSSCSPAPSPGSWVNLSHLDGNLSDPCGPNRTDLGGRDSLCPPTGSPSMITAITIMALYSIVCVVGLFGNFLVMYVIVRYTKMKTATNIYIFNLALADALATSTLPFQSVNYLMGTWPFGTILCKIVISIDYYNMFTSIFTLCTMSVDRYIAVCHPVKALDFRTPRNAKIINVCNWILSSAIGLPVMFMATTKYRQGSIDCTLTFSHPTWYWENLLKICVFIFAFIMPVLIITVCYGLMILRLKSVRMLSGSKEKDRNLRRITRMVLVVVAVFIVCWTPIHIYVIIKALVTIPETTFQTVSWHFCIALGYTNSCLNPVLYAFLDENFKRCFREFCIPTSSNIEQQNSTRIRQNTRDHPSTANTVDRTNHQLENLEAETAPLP

SMILES	inhibition at 1 µM
CN(C)C(c1cccs1)C1CCC(CNC(=O)COCCN(C)S(=O)(=O)c2ccc(OC(F)(F)F)cc2)CC1 (centres unmarked) [Example 93, N-((4-((dimethylamino)(thiophen-2-yl)methyl)cyclohexyl)methyl)-2-(2-(N-methyl-4-(trifluoromethoxy)phenylsulfonamido)ethoxy)acetamide]	95%
COc1ccc(S(=O)(=O)N2CCC(OCC(=O)NCCC3CCC(C(c4cccs4)N(C)C)CC3)C2)cc1OC (centres unmarked) [Example 94, 2-(1-(3,4-dimethoxyphenylsulfonyl)pyrrolidin-3-yloxy)-N-(2-(4-((dimethylamino)(thiophen-2-yl)methyl)cyclohexyl)ethyl)acetamide]	93%
